“Also recorded” adds a separate entry of the source. Like-named read-outs stand apart in the source and are kept apart here.
Assays:
Artemia salina = assay: whole plant or invertebrate; format: in vivo; conditions: for Effect on brine shrimp A. salina: at 30 µM
Method: Brine shrimp A. salina is an important model organism for ecosystems, and because of its high sensitivity and easy availability, it can be used in laboratory settings to study toxic effects and to provide safe results. A. salina or brine shrimp cysts were cultivated in 3.2% of saline water. After aeration with normal saline, cysts were placed at temperature for 24 h and then cultured. For toxicity screening, hatched larvae were collected and introduced in saline water. Add 0.9% brine and 30 larvae with good activity to each well to produce a 96-well test culture plate. New compounds of 0.1 µM, 1 µM, 10 µM and 30 µM and DAT were added to the experimental culture plate, respectively. Dimethyl sulfoxide (Aladdin, Shanghai, China) and dichloromethane (Aladdin, Shanghai, China) were added as blank control and positive control. The survival rate of A. salina was calculated after 24 h treatment at 25 °C.
Commercially available Artemia salina (A. salina) or brine shrimp cysts were purchased and cultivated in 3.2% of saline water. Before cultivation, the saline was aerated, and then cysts were kept at room temperature for 24 h. For toxicity screening, hatched larvae were collected and introduced in saline water. Add saline water and equivalent larvae in per well of 96 wells to make test culture plate. Aplysiatoxins with 0.1 μM, 1 μM, 10 μM, 30 μM was added to test culture plate, while DMSO and dichloromethane were added as blank control test and positive control separately. After 24 h in 25 °C, the percent of survival of A. salina was calculated.
Table S1.3.2.1. Effect of compounds 1-4 to Artemia salina (A. salina) . A. salina were treated with indicated concentration (0.1 µM, 1 µM, 10 µM, 30 µM) of dichloromethane (DCM), debromoaplysiatoxin (DAT), oscillatoxin J, oscillatoxin K, oscillatoxin L, oscillatoxin M, Methylenechloride, Control for 24 h. The percentage of A. salina with all different kinds of […]
Compounds Percentage of Survival of Artemia salina after 24 h (μM) […]
Figure S1.3.2.1. Effect of debromoaplysiatoxin to Artemia salina (A. salina). […]
(also on this page, place not known: compound s , , , , J K L M . USA) -1.5 -1.0 -0.5 0.0 0 20 40 60 80 100 LogCon.
(1 picture or pasted object on this page, not shown here)

phosphor PKCδ = test system: phosphor PKCδ; design: method as in PMID 35521179; conditions: HepG2, 10 µM; cited from earlier work
Kv1.2 channel = test system: Kv1.2 channel; design: method as in PMID 18313714; conditions: read-out: IC50 against Kv1.2 channel; cited from earlier work
human Kv1.5 channels = target: T1, human Kv1.5 channels (Homo sapiens, UniProt P22460); assay: Kv1.5 current inhibition, whole-cell electrophysiology in LTK cells stably expressing human Kv1.5; format: cell-based; conditions: for Voltage dependence of Kv1.5 current inhibition: tested potentials -50 mV to 50 mV
T1 construct: expressed in transfected cells
Method: For culturing mouse L cells lacking thymidine kinase (LTK) cells stably expressing human Kv1.5 channels (LTK/Kv1.5), 10% fetal bovine serum (FBS), 10,000 U/ml penicillin G and 10 mg/ml streptomycin were added into Dulbecco’s Modified Eagle Media (DMEM). LTK/Kv1.5 cells were cultured in a 37 °C humidified incubator set to 5% CO2. The amount of 100 μg/ml Genetic (G418) was added into the culture media to select transgenic cells. When the cells grew to 75–85% confluence, they were passaged for subsequent electrophysiological records (Supplementary Materials 1.3.1.1).
LTK cells cultured for at least 24 h could be used for currents recording. For Kv1.5 potassium current recording, the recording micropipettes were pulled with a P97 microelectrode puller (Sutter, CA, USA) with a resistance of about 3 MΩ when filling with internal solution containing the following: KCl 140 mM, MgCl2 1 mM, EGTA 5 mM, HEPES 10 mM and MgATP 1 mM (pH was adjusted to 7.25 by KOH). The bath solution contained the following: NaCl 137 mM, KCl 5.4 mM, CaCl2 1.8 mM, MgCl2 1 mM, Glucose 10 mM and HEPES 10 mM (pH was adjusted to 7.4 by NaOH). Kv1.5 currents were recorded at room temperature (22–24 °C) by PulseMaster (Version 2.65, Heka, Lambrecht, Germany) via an EPC-10 USB amplifier (Heka, Lambrecht, Germany). In order to reduce recording errors, cells with seal resistance above 1 GΩ and series resistance that was fully compensated above 80% were used. Leak compensation was used to compensate the leak current and to subtract the capacitive artifacts (Supplementary Materials 1.3.1.2).
1.3.1. Ion Channel Experiment
For culturing mouse L cells lacking thymidine kinase (Ltk−) cells stably expressing human Kv1.5 channels (Ltk−/Kv1.5), 10% fetal bovine serum (FBS), 10,000 U/ml penicillin G and 10 mg/ml streptomycin were added into Dulbecco's Modified Eagle Media (DMEM). Ltk−/Kv1.5 cells were cultured in a 37 °C humidified incubator set to 5% CO2. 100 μg/ml Genetic (G418) was added into the culture media to select transgenic cells. When the cells grew to 75% - 85% confluent, they were passaged for subsequent electrophysiological records.μ1.3.1.2.
1.3.1.2. Electrophysiology
Ltk− cells cultured for at least 24 h could be used for currents recording. For Kv1.5 potassium currents recording, the recording micropipettes were pulled with a P97 microelectrode puller (Sutter, CA, USA) with a resistance about 3 MΩ when filling with internal solution containing: KCl 140 mM, MgCl2 1 mM, EGTA 5 mM, HEPES 10 mM, MgATP 1 mM (pH was adjusted to 7.25 by KOH). The bath solution contained: NaCl 137 mM, KCl 5.4 mM, CaCl2 1.8 mM, MgCl2 1 mM, Glucose 10 mM, HEPES 10 mM (pH was adjusted to 7.4 by NaOH). Kv1.5 currents were recorded at room temperature (22–24°C) by PulseMaster (Version 2.65, Heka, Lambrecht, Germany) via an EPC-10 USB amplifier (Heka, Lambrecht, Germany).
To reduce recording errors, cells with seal resistance above 1 GΩ and series resistance was fully compensated above 80% were used. Leak compensation was used to compensate the leak current and to subtract the capacitive artifacts
Cells with amplitudes above 1 nA, series resistance less than 10 MΩ and leak compensation below 200 pA were chosen for data analysis. Kv1.5 currents were evoked by a 300 ms depolarizing pulse from -50 mV to 50 mv in 20 mV increments from a holding potential of -70 mV. The current amplitude at the end of 300-ms pulse was measured. The IC50 and Hill coefficient (n) was obtained by fitting concentration dependence data to the equation of I (%) = 1/{1+(IC50/[D]) n} in which I (%) is the percent inhibition of current (I (%) = [1-Idrug/Icontrol] ×100) at test potential and [D] represents various drug concentrations . The measured error at the end of relative short 300 ms pulse was limited and the fitted IC 50 was acceptable. For steady-state activation curves were fitted with the Boltzmann function: G/Gmax =1/{1+exp[−(V-V1/2)/k]}, where V is a membrane potential and the Nernst K + equilibrium potential EK was calculated as−80 mV. G was […]

T1 sequence (P22460 whole entry): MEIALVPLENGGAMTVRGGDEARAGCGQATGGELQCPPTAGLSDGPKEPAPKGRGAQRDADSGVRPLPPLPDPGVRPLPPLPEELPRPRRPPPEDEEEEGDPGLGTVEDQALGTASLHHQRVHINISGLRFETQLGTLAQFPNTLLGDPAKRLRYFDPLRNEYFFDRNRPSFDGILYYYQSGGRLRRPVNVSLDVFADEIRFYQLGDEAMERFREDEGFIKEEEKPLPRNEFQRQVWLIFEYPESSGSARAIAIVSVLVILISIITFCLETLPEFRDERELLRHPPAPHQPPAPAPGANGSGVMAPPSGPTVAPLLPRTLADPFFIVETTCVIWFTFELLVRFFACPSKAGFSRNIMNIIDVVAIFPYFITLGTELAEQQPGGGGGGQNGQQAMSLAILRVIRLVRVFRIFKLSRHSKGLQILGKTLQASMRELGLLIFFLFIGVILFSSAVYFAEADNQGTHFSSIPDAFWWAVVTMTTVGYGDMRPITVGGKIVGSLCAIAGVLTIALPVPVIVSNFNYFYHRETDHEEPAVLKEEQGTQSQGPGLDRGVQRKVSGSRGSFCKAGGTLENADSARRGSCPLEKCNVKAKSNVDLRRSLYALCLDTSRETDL

Structure (SMILES)	Percentage of Survival of Artemia salina after 24 h (Artemia salina; 0.1 µM, 24 h) [%]	Percentage of Survival of Artemia salina after 24 h (Artemia salina; 1 µM, 24 h) [%]	Percentage of Survival of Artemia salina after 24 h (Artemia salina; 10 µM, 24 h) [%]	Percentage of Survival of Artemia salina after 24 h (Artemia salina; 30 µM, 24 h) [%]	Concentration at which survival of Artemia salina began to be affected (Artemia salina; 24 h) [nM]	IC50 (Artemia salina; Artemia salina, 0.05-0.5 µM, read-out: IC50 of brine shrimp toxicity (survival of A. salina)) [nM]	Expression of phosphor PKCδ (phosphor PKCδ)	IC50 (Kv1.2 channel) [nM]	Effect on brine shrimp A. salina (Artemia salina)	IC50 (human Kv1.5 channels) [nM]	Voltage dependence of Kv1.5 current inhibition (human Kv1.5 channels)	Effect on Kv1.5 (human Kv1.5 channels; at 10 µM)	IC50 (human Kv1.5 channels; current at end of 300 ms pulse at 50 mV, 0.3-10 µM, mean ± SEM of 3 to 5 measurements, read-out: IC50 of Kv1.5 current inhibition) [nM]
CO[C@@H](CC[C@H](C)[C@H]1O[C@@]23C[C@H](OC(=O)C[C@H]([C@@H](C)O)OC(=O)C[C@](O)(O2)[C@H](C)CC3(C)C)[C@@H]1C)c1cccc(O)c1 [Compound 5, debromoaplysiatoxin]	87.19±0.74	2.96±2.1	0	0	100	340 ± 36	strongly upregulating	–	–	–	–	–	–
C=CC/C=C\C=C/[C@H]1O[C@H]2C[C@H]3O[C@H]4CC[C@H]5O[C@H]6C[C@@]7(C)O[C@@]8(C)[C@@H](O)C[C@H](CCCO)O[C@@H]8C[C@@H]7O[C@@H]6C[C@@H]5O[C@]4(C)C[C@]3(C)O[C@@H]2C=C[C@]1(C)O [Gambierol]	–	–	–	–	–	–	–	34.5 ± 1.5	–	–	–	–	–
ClCCl [Methylenechloride, dichloromethane, reference compound]	0	0	0	0	–	–	–	–	–	–	–	–	–
COC(CCC(C)C1OC23CC(OC(=O)CC(C(C)O)OC(=O)CC(C)(O2)C(=O)CC3(C)C)C1C)c1cccc(O)c1 (stereo not shown) [Compound 4, oscillatoxin M]	95.13±1.09	96.29±0.11	96.15±0.12	82.27±6.13	–	–	–	–	no apparent effect	3790 ± 1010	voltage dependently inhibited	–	–
CO[C@@H](CC[C@H](C)[C@H]1O[C@@]23C[C@H](OC(=O)C[C@H]([C@@H](C)O)OC(=O)C[C@](O)(O2)[C@@](C)(O)CC3(C)C)[C@@H]1C)c1cccc(O)c1 [Compound 3, oscillatoxin L]	97.74±1.60	98.89±1.57	96.37±0.28	73.38±9.64	–	–	–	–	no apparent effect	> 10000	–	minimum effects; also recorded: no apparent Kv1.5 inhibition activity	–
CO[C@@H](CC[C@H](C)[C@H]1O[C@@]23C[C@H](OC(=O)C[C@H]([C@@H](C)O)OC(=O)/C=C(\O2)C(C)=CC3(C)C)[C@@H]1C)c1cccc(O)c1 [Compound 1, oscillatoxin J]	96.62±0.37	95.87±0.7	95±1.52	93.61±5.11	–	–	–	–	no apparent effect	–	voltage dependently inhibited	–	2610 ± 910
CO[C@@H](CC[C@H](C)[C@H]1O[C@]23C[C@H](OC(=O)C[C@H]([C@@H](C)O)OC(=O)[C@H](O)C(=C(C)CC2(C)C)O3)[C@@H]1C)c1cccc(O)c1 [Compound 2, oscillatoxin K]	96.63±0.05	96.05±0.07	95.23±0.19	89.97±7.12	–	–	–	–	no apparent effect	3860 ± 1030	voltage dependently inhibited	–	–

— article PMC8622842, “Absolute Structure Determination and Kv1.5 Ion Channel Inhibition Activities of New Debromoaplysiatoxin Analogues” (Marine Drugs, 2021)
